What was measured:
[1] = system: Hepa1-6 mouse HCC cells; assay: RT-qPCR of hypoxia-induced gene expression in Hepa1-6 cells; type: cell-based; details: Hepa1-6, 1% O2, 24 hours
Procedure: Next, we analyzed Hepa1-6, which is a mouse HCC cell line. […] CXCL1, IL-6, and IL-10 were not induced by hypoxia, whereas hypoxia-induced IL-22 expression was inhibited by 32-134D (P < 0.05; Figure 3C).
Figure 3 Effect of 32-134D treatment on hypoxia-induced gene expression in Hepa1-6 cells. (A–C) Cells were exposed to 20% O2 and vehicle (white bars), 1% O2 and vehicle (blue bars), or 1% O2 and 32-134D (red bars) for 24 hours and mRNAs were quantified by RT-qPCR and normalized to white (mean ± SEM, n = 4). *P < 0.05 versus white; ^#P < 0.05 versus blue (ANOVA with Bonferroni’s post hoc test).
(§1) RNA was extracted using TRIzol Reagent. Quantitative real-time PCR was conducted using SYBR Green PCR Master Mix and reactions were run using a Bio-Rad thermal cycler. Primer sequences and reagent sources are listed in Supplemental Table 5. The mRNA expression of target genes was normalized to the expression of 18S rRNA and the fold change (FC) was calculated based on the threshold cycle (Ct) as FC = 2^–Δ(ΔCt), where ΔCt = Cttarget gene – Ct18S rRNA and Δ(ΔCt) = ΔCttreatment – ΔCtcontrol. For RNA-seq, total RNA was isolated and treated with DNase (Qiagen). The JHU GRCF High-Throughput Sequencing facility prepared libraries and performed RNA-seq. The RNA-seq data were processed and interpreted using Genialis Expressions software (https://www.genialis.com/expressions/). An automated data analysis pipeline run in the Genialis platform consisted of the following: Sequence quality checks were performed on raw and trimmed reads with FastQC. Bbduk was used to trim adapters and filter out poor quality reads. Trimmed reads were then mapped to the STAR index (ENSEMBL 100) reference genome using the STAR ([93]) aligner. Gene expression levels were quantified with featureCounts ([94]), and differential gene expression analyses were performed with DESeq2 ([95]). […] Differential expression was determined with an FDR of less than 0.05 and mRNA FC of greater than 1.5 to identify hypoxia-induced genes and genes inhibited by 32-134D. Data used in this study have been deposited in the NCBI Gene Expression Omnibus database (GEO GSE195997).
Supplemental Figure 7. Effect of 32-134D on gene expression in Hepa1-6 cells. Cells were exposed to 20% O2 and vehicle (white bar) or 1% O2 and vehicle (blue bar), 2.5-10 […]
for 24 hours and mRNAs were quantified by RT-qPCR and normalized to white (mean + SEM, n = 4). *p < 0.05 vs white; #p < 0.05 vs blue (ANOVA with Bonferroni post-test).
(1 picture or pasted object on this page, not shown here)

[2] = system: HIF target genes in Hep3B cells; assay: RT-qPCR of endogenous HIF target gene expression in Hep3B cells; type: cell-based, human
Description: Based on this hit, we synthesized analogs in which either halogen substitutions to the indole groups were altered or the central thiazole was replaced by imidazole, isoxazole, oxadiazole, oxazole, pyrazinone, pyridazine, pyrazine, pyrazole, pyridine, thiadiazole, triazine, or triazole. […] We focused on analyzing the effect of the bis-bromoindole thiazole 32-134D and the bis-indole thiadiazole 33-063 on endogenous HIF target gene expression in Hep3B cells. […] For comparison, we tested the effect of PT2385, which inhibited EPO, NDRG1, ANGPTL4, and VEGFA expression but had no effect on CA9, which is consistent with its HIF-2–selective mechanism of action ([44]). None of the compounds had any effect on RPL13A expression, which is neither induced by hypoxia nor regulated by HIFs (Supplemental Figure 2D).
Human Hep3B and mouse Hepa1-6 cells were purchased from ATCC and grown in high-glucose (4.5 mg/mL) Dulbecco’s modified Eagle’s medium supplemented with 10% (vol/vol) fetal bovine serum and 1% penicillin/streptomycin at 37°C in a 5% CO2/95% air incubator (Supplemental Table 6). Human cell line identity was authenticated by analysis of short tandem repeats, and all cell lines were maintained mycoplasma free, using PCR-based assays conducted at the Johns Hopkins University Genetic Resources Core Facility (JHU GRCF). Cells were subjected to hypoxia in a controlled atmosphere chamber (PLAS Labs) with ambient gas mixture containing 1% O2 and 5% CO2.
as §1
Supplemental Figure 2. Effect of 32-134D on gene expression in Hep3B cells. (A-D) Hep3B cells were exposed to 20% O2 in the presence of vehicle (first bar; no fill) or 1% O2 in the presence of: vehicle (blue bar) or the indicated concentration of 32-134D (bars with red fill) or 33-063 (bars with green fill), or PT2385 (bars with brown fill) for 24 hours and the indicated mRNAs were quantified by reverse transcription and quantitative real-time PCR (qPCR). Data are presented as mean + SEM (n = 3). *p < 0.05 vs white; **p < 0.01 vs blue (ANOVA with Bonferroni post-test). […]
(G-H) Analysis of HIF-1a (G) and HIF-2a (H) […]
mRNA expression in Hep3B cells exposed to vehicle or 32-134D at 20% or 1% O2 for 24

`Brc1ccc2c(-c3csc(-c4c[nH]c5c(Br)cccc45)n3)c[nH]c2c1` [Compound 32-134D] was tested, and the “RPL13A mRNA expression” value [1] was “no effect”, the “hypoxic induction of PDL1 mRNA” value [1] was “induced in vehicle-treated but not in 32-134D–treated cells” and the “hypoxia-induced ANGPTL4, EPO, PGF, and VEGFA mRNA expression” value ([1]; 2.5-10 µM) was “significant dose-dependent inhibition”. For the same molecule, the “hypoxia-induced IL-22 expression” value ([1]; P < 0.05) was “inhibited”, the “hypoxia-induced expression of SLC2A1, LDHA, ENTPD1, and CA9 mRNA” value ([1]; P < 0.05) was “inhibited” and the “hypoxic induction of B7H4 and TIM3 mRNA” value ([1]; P < 0.05) was “hypoxia-induced expression in vehicle-treated but not in 32-134D–treated cells”. For the same molecule, the “hypoxia-induced ANGPTL4, VEGFA, NDRG1 and EPO mRNA expression” value ([2]; Hep3B cells, 1% O2, 24 hours) was “significantly inhibited”, the “hypoxia-induced CA9 mRNA expression (activated by HIF-1 only)” value ([2]; Hep3B cells, 1% O2, 24 hours) was “significantly inhibited” and the “HIF-1α or HIF-2α mRNA expression” value ([2]; Hep3B, 24 hours) was “no effect”.

— paper PMC9057582, “HIF inhibitor 32-134D eradicates murine hepatocellular carcinoma in combination with anti-PD1 therapy” (The Journal of Clinical Investigation, 2022)
